pIC50: −log10 of the molar value.

Assay [1] deals with T1, RNR (RNR1:RNR2 1:1) (Homo sapiens, UniProt P23921).
T1 sequence (P23921 1-792): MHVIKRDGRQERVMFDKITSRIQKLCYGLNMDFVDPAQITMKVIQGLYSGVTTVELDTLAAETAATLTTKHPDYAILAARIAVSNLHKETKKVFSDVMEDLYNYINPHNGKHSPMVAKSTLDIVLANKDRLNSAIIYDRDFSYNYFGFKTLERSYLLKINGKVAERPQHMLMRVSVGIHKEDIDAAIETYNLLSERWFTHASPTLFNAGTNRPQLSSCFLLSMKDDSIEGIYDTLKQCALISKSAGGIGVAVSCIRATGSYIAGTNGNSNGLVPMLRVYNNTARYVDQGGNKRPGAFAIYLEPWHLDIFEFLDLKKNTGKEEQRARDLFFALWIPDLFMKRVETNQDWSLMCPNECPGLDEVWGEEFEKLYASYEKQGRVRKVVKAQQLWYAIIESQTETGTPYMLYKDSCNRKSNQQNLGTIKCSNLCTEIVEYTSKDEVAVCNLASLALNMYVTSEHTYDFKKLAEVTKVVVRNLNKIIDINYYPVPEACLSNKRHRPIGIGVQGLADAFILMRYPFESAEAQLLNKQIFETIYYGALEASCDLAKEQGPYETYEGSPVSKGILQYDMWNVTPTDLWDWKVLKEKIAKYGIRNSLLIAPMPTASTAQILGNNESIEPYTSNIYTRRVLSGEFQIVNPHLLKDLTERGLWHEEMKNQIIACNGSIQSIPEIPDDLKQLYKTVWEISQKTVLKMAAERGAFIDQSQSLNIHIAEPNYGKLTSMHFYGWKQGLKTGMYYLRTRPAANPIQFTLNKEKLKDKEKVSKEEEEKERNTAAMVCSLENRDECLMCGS
Put plainly: RNR enzyme activity, rapid-fire mass spectrometry (RF/MS) assay. The conditions noted are these: [RNR] 50 nM, 1:1 RNR1:RNR2; CDP 5 μM; ATP 1 mM; 37° C., 45 min; compounds screened up to 50 μM. It is filed as biochemical. How it is done: A rapid-fire mass spectrometry (RF/MS) assay was used to assess RNR enzyme activity using a 384 well plate and a robotic platform.
The plate layout included two validated reference compounds (Triapine (3-AP) and Hydroxyurea (HU)): • A dose response in duplicate; top concentration: 5 μM (3-AP) and 250 μM (HU), semi-log dilutions. • Spike wells in triplicate randomly spotted at four concentrations: • 250 μM, 100 μM, 30 μM and 2 μM for HU • 5 μM, 2 μM, 0.6 μM and 0.04 μM for 3-AP
First, the multidrop pipes were saturated for 30 minutes with enzymatic solution. Then 30 μL of Stop solution was distributed in column 24. Next, 15 μL of enzyme was distributed in column 1 to 24. Next, a pre-incubation step of 15 minutes at room temperature occurred, followed by distribution of 15 μL of substrate solution (column 1 to 24). Next, the plate was incubated for 45 minutes at 37° C. 30 μL of Stop solution was then distributed to columns 1 to 23.
The final parameters for the enzyme reactions were: • Incubation: 37° C., 45 min • [CDP]: 5 μM; [ATP]: 1 mM; [NADPH]: No • [RNR]final: 50 nM with 1:1 (RNR1:RNR2) ratio • Final volume: 30 μL • Stop solution: 6% HCOOH in water

Assay [2] has as its system pCHK1 (S345) in Colo320 DM cells. Put plainly: Alphalisa assay, detection of pCHK1 (S345) in Colo320 DM cells. The conditions noted are these: Homo sapiens, COLO 320DM, compound overnight (approximately 16 hours). It is filed as cell-based, human. As for the experimental part: Colo320 DM cells (ATCC #CCL-220, derived from human colorectal adenocarcinoma, Dukes' type C) were seeded on a […], cell culture treated assay plate at a density of 50,000 cells/well in 200 μL of RPMI-1640 media supplemented with 10% Fetal Bovine Serum and incubated at 37° C. overnight. The following day, test compound dilutions were added directly to the plated cells by a Tecan digital dispenser to a final DMSO concentration of <0.5%. and incubated at 37° C. overnight (approximately 16 hours). The following day all cell culture media was removed from the cells. 75 μL of 1×AlphaLisa lysis buffer was added to each well and plates were agitated on a shaker for 30 minutes at room temperature. The lysis of cells and detection of pCHK1 (S345) were performed with reagents contained within the AlphaLisa Sure Fire assay kit (Perkin Elmer #ALSU-PCHK1-A) according to the manufacturer's instructions. 10 μL of each lysate was then transferred to a white, 384-well assay plate (Perkin Elmer #6008280). 5 μL of Acceptor mix was then added to each well of lysate in the white, 384-well assay plate and incubated in the dark at room temperature for 60 minutes. 5 μL of Donor mix was then added to each well of the white, 384-well assay plate in subdued light and incubated at room temperature for 60 minutes. Plates were read on an Alpha Technology-compatible plate reader using standard AlphaLisa settings.

Regarding `Cc1ccc(F)c([C@@H](C)[C@@H](c2n[nH]c(=O)o2)N2CCOc3cc(Cl)ncc3S2(=O)=O)c1C` [Example 17, 5-((1S, 2R)-1-(7-chloro-1,1-dioxido-3,4-dihydro-2H-pyrido[4,3-b][1,4,5]oxathiazepin-2-yl)-2-(6-fluoro-2,3-dimethylphenyl)propyl)-1,3,4-oxadiazol-2 (3H)-one], the pIC50 (in general, the negative decadic logarithm of the IC50, by convention in mol/L) in assay [1] was 5.00 to 6.00; in assay [2] it was less than 4.30.
Taken in the same sequence, the figures for `COC(=O)c1cc(Cl)cc2c1S(=O)(=O)N([C@H](c1n[nH]c(=O)o1)[C@H](C)c1c(F)ccc(C)c1C)CCO2` [Example 18, methyl 7-chloro-2-((1S,2R)-2-(6-fluoro-2,3-dimethylphenyl)-1-(5-oxo-4,5-dihydro-1,3,4-oxadiazol-2-yl)propyl)-3,4-dihydro-2H-benzo[b][1,4,5]oxathiazepine-9-carboxylate 1,1-dioxide] were 6.00 to 7.00 and 4.30 to 5.00.
Taken in the same sequence, the figures for `COC(=O)c1cc(Cl)cc2c1S(=O)(=O)N([C@H](c1n[nH]c(=O)o1)[C@H](C)c1c(F)ccc(C)c1C)CN2C` [Example 19, methyl 6-chloro-2-((1S,2R)-2-(6-fluoro-2,3-dimethylphenyl)-1-(5-oxo-4,5-dihydro-1,3,4-oxadiazol-2-yl)propyl)-4-methyl-3,4-dihydro-2H-benzo[e][1,2,4]thiadiazine-8-carboxylate 1,1-dioxide] were 7.00 to 7.70 and 5.30 to 6.00.
As to `Cc1ccc(F)c([C@@H](C)[C@@H](c2n[nH]c(=O)o2)N2C3CCCN3c3cc(Cl)ccc3S2(=O)=O)c1C` (stereo partly drawn) [Example 20, 5-((1S,2R)-1-(8-chloro-5,5-dioxido-1,2,3,3a-tetrahydro-4H-benzo[e]pyrrolo[2,1-c][1,2,4]thiadiazin-4-yl)-2-(6-fluoro-2,3-dimethylphenyl)propyl)-1,3,4-oxadiazol-2 (3H)-one], the negative-log IC50 (pIC50) in assay [1] is more than 7.70; in assay [2], 5.30 to 6.00.
Taken in the same sequence, the figures for `Cc1ccc(F)c([C@@H](C)[C@@H](c2n[nH]c(=O)o2)N2CCNc3cc(Cl)ccc3S2(=O)=O)c1C` [Example 21, 5-((1S,2R)-1-(7-chloro-1,1-dioxido-4,5-dihydrobenzo[f][1,2,5]thiadiazepin-2 (3H)-yl)-2-(6-fluoro-2,3-dimethylphenyl)propyl)-1,3,4-oxadiazol-2 (3H)-one] were 7.00 to 7.70 and 5.30 to 6.00.
In the case of `Cc1ccc(F)c([C@@H](C)[C@@H](c2n[nH]c(=O)o2)N2CN(C)c3cc(Cl)cc(C(N)=O)c3S2(=O)=O)c1C` [Example 22, 6-chloro-2-((1S,2R)-2-(6-fluoro-2,3-dimethylphenyl)-1-(5-oxo-4,5-dihydro-1,3,4-oxadiazol-2-yl)propyl)-4-methyl-3,4-dihydro-2H-benzo[e][1,2,4]thiadiazine-8-carboxamide 1,1-dioxide], the pIC50 in assay [1] is more than 7.70; in assay [2], not below 6.00.
For `Cc1ccc(F)c([C@@H](C)[C@@H](c2n[nH]c(=O)o2)N2CCOc3cc(Cl)cc(C(N)=O)c3S2(=O)=O)c1C` [Example 23, 7-chloro-2-((1S,2R)-2-(6-fluoro-2,3-dimethylphenyl)-1-(5-oxo-4,5-dihydro-1,3,4-oxadiazol-2-yl)propyl)-3,4-dihydro-2H-benzo[b][1,4,5]oxathiazepine-9-carboxamide 1,1-dioxide], the negative-log IC50 (pIC50) in assay [1] is more than 7.70; in assay [2] it was 5.30 to 6.00.
In the case of `Cc1ccc(F)c([C@@H](C)[C@@H](c2n[nH]c(=O)o2)N2CCOc3cc(Cl)cc(C)c3S2(=O)=O)c1C` [Example 24, 5-((1S,2R)-1-(7-chloro-9-methyl-1,1-dioxido-3,4-dihydro-2H-benzo[b][1,4,5]oxathiazepin-2-yl)-2-(6-fluoro-2,3-dimethylphenyl)propyl)-1,3,4-oxadiazol-2 (3H)-one], the results for the pIC50 in assay [1] and in assay [2] were 6.00 to 7.00 and less than 4.30, respectively.
Turning to `CC(=O)c1c(Cl)ccc2c1OCCN([C@H](c1n[nH]c(=O)o1)[C@H](C)c1c(F)ccc(C)c1C)S2(=O)=O` [Example 25, 5-((1S,2R)-1-(6-acetyl-7-chloro-1,1-dioxido-3,4-dihydro-2H-benzo[b][1,4,5]oxathiazepin-2-yl)-2-(6-fluoro-2,3-dimethylphenyl)propyl)-1,3,4-oxadiazol-2 (3H)-one], the figures for the negative-log IC50 (pIC50) in assay [1] and in assay [2] were more than 7.70 and 5.30 to 6.00, respectively.
Taken in the same sequence, the figures for `Cc1ccc(F)c([C@@H](C)[C@@H](c2n[nH]c(=O)o2)N2CN(C)c3cc(Cl)cc(C)c3S2(=O)=O)c1C` [Example 26, 5-((1S,2R)-1-(6-chloro-4,8-dimethyl-1,1-dioxido-3,4-dihydro-2H-benzo[e][1,2,4]thiadiazin-2-yl)-2-(6-fluoro-2,3-dimethylphenyl)propyl)-1,3,4-oxadiazol-2 (3H)-one] were 7.00 to 7.70 and 4.30 to 5.00.
The matching figures for `Cc1ccc(F)c([C@@H](C)[C@@H](c2n[nH]c(=O)o2)N2CCOc3cc(Cl)ncc3S2(=O)=O)c1C` [Example 27, 5-((1S,2R)-1-(7-chloro-1,1-dioxido-3,4-dihydro-2H-pyrido[4,3-b][1,4,5]oxathiazepin-2-yl)-2-(6-fluoro-2,3-dimethylphenyl)propyl)-1,3,4-oxadiazol-2 (3H)-one]: 5.00 to 6.00 and 4.30 to 5.00.
`COCCCN1CN([C@H](c2n[nH]c(=O)o2)[C@H](C)c2c(F)ccc(C)c2C)S(=O)(=O)c2ccc(Cl)cc21` [Example 30, 5-((1S,2R)-1-(6-chloro-4-(3-methoxypropyl)-1,1-dioxido-3,4-dihydro-2H-benzo[e][1,2,4]thiadiazin-2-yl)-2-(6-fluoro-2,3-dimethylphenyl)propyl)-1,3,4-oxadiazol-2 (3H)-one]: the pIC50 in assay [1] is more than 7.70; in assay [2], not below 6.00.
In the case of `Cc1ccc(F)c([C@@H](C)[C@@H](c2n[nH]c(=O)o2)N2CN(C)c3c(ccc(Cl)c3C)S2(=O)=O)c1C` [Example 32, 5-((1S,2R)-1-(6-chloro-4,5-dimethyl-1,1-dioxido-3,4-dihydro-2H-benzo[e][1,2,4]thiadiazin-2-yl)-2-(6-fluoro-2,3-dimethylphenyl)propyl)-1,3,4-oxadiazol-2 (3H)-one], the pIC50 is 7.00 to 7.70 in assay [1] and 4.30 to 5.00 in assay [2].
Regarding `Cc1ccc(F)c([C@@H](C)[C@@H](c2n[nH]c(=O)o2)N2CN(C3CCOCC3)c3cc(Cl)ccc3S2(=O)=O)c1C` [Example 33, 5-((1S,2R)-1-(6-chloro-1,1-dioxido-4-(tetrahydro-2H-pyran-4-yl)-3,4-dihydro-2H-benzo[e][1,2,4]thiadiazin-2-yl)-2-(6-fluoro-2,3-dimethylphenyl)propyl)-1,3,4-oxadiazol-2 (3H)-one], the pIC50 in assay [1] was more than 7.70; in assay [2], not below 6.00.
Taken in the same sequence, the figures for `Cc1ccc(F)c([C@@H](C)[C@@H](c2n[nH]c(=O)o2)N2CN(CCCN(C)C)c3cc(Cl)ccc3S2(=O)=O)c1C` [Example 34, 5-((1S,2R)-1-(6-chloro-4-(3-(dimethylamino)propyl)-1,1-dioxido-3,4-dihydro-2H-benzo[e][1,2,4]thiadiazin-2-yl)-2-(6-fluoro-2,3-dimethylphenyl)propyl)-1,3,4-oxadiazol-2 (3H)-one] were more than 7.70 and 5.30 to 6.00.

These data come from patent US20260085067A1, “CYCLIC SULFONAMIDE RIBONUCLEOTIDE REDUCTASE (RNR) INHIBITORS AND USES THEREOF” (Boundless Bio, Inc., priority 2022, published 2026).
